Values of other authors in patent publication US20220354770A1, “METHOD FOR DYEING KERATINOUS MATERIAL BY MEANS OF A PREMIX OF AMINOSILICONE AND A CHROMOPHORIC COMPOUND” (Henkel AG & Co. KGaA, priority 2019, published 2022).

Conditions: 25° C.

Row | SMILES | solubility in water
1 | O=C([O-])c1c(Cl)c(Cl)c(Cl)c(Cl)c1-c1c2c(Br)cc(=O)c(Br)c-2oc2c(Br)c(O)cc(Br)c12.O=C([O-])c1c(Cl)c(Cl)c(Cl)c(Cl)c1-c1c2c(Br)cc(=O)c(Br)c-2oc2c(Br)c(O)cc(Br)c12.[Na+].[Na+] [Acid Red 92, disodium salt of 3,4,5,6-tetrachloro-2-(1,4,5,8-tetrabromo-6-hydroxy-3-oxoxanthen-9-yl)benzoic acid] | greater than 10 g/L
2 | O=S(=O)([O-])c1ccc(N=Nc2c(O)ccc3ccccc23)cc1.[Na+] [Acid Orange 7, sodium salt of 4-[(2-hydroxy-1-naphthyl)azo]benzene sulphonate] | more than 7 g/L
3 | Nc1cc(S(=O)(=O)[O-])cc2cc(S(=O)(=O)[O-])c(N=Nc3ccccc3)c(O)c12.[Na+].[Na+] [Acid Red 33, diantrium salt of 5-amino-4-hydroxy-3-(phenylazo)-naphthalene-2,7-disulphonate] | 2500 µg/mL
4 | O=C([O-])C1=NN(c2ccc(S(=O)(=O)[O-])cc2)C(=O)C1N=Nc1ccc(S(=O)(=O)[O-])cc1.[Na+].[Na+].[Na+] (stereo not shown) [Acid Yellow 23, trisodium salt of 4,5-dihydro-5-oxo-1-(4-sulfophenyl)-4-((4-sulfophenyl)azo)-1H-pyrazole-3-carboxylic acid] | highly soluble
